Literature values in US20130317108A1, “DERMATOLOGICAL FOAMS OBTAINED FROM A GEL OR SUSPENSION CONTAINING A COMBINATION OF ADAPALENE AND BENZOYL PEROXIDE” (GALDERMA RESEARCH & DEVELOPMENT, priority 2010, published 2013).
Read-outs that look alike come from different tables or passages of the source.

Key:
[1] = in presence of benzoyl peroxide formulation
[2] = in suspension (dispersed form) in water and propylene glycol, 90 days of storage
[3] = 40° C.

| Compound | retinoid degraded ([1]; within 24 hours) | degradation on storage [2] | degradation time (half-life time) ([3]; in PEG 400 (0.5 mg/g)) [days] | degradation time (half-life time) ([3]; in ethanol) [days] | degradation time (half-life time) ([3]; in propylene glycol) [days] | retinoid degraded ([1]; within 2 hours) [%] |
| --- | --- | --- | --- | --- | --- | --- |
| COc1ccc(-c2ccc3cc(C(=O)O)ccc3c2)cc1C12CC3CC(CC(C3)C1)C2 [adapalene, 6-[3-(1-Adamantyl)-4-methoxyphenyl]-2-naphthoic acid] | no degradation | – | – | – | – | – |
| O=C(OOC(=O)c1ccccc1)c1ccccc1 [benzoyl peroxide] | – | not degraded | 1.4 | 29 | 53 | – |
| CC1=C(/C=C/C(C)=C/C=C/C(C)=C/C(=O)O)C(C)(C)CCC1 [tretinoin] | 95% | – | – | – | – | 50 |
